Measurements reported in patent US20230372263A1, “METHODS AND COMPOSITIONS FOR TREATING AMYOTROPHIC LATERAL SCLEROSIS” (Amylyx Pharmaceuticals, Inc., priority 2022, published 2023).

What was measured:
[1] = system: human hepatocytes; assay: Metabolites in hepatocytes in vitro; assay type: in vitro ADME
[2] = clinical; assay type: in vivo, human; settings: human, in vivo
Experimental: (§1) • Protocol AMX3500: sparse sampling in 87 subjects with ALS. Approximately 2 samples are collected for each subject, 1 or 4 hours post dose following 12 and 24 weeks of treatment. • Protocol A35-002: rich sampling in 14 healthy adults. Approximately 21 samples are collected over 24 hours for each subject on two occasions, once following a high fat meal and the other under fasting conditions.
A total of 14 healthy subjects were enrolled in order to have no fewer than 12 subjects complete. A predefined mix of gender was selected.
Each study period followed the same study design (FIG. 1). Subjects were screened for inclusion in the study up to 28 days before dosing. Subjects were admitted to the clinical unit during Study Day −2 for Period 1 and Day −1 for Period 2 and were dosed in the morning of Day 1. On the night prior to Period 1 the subjects in the fasted/fed or fed/fasted sequence were fasted for a minimum of 10 h prior to dosing.
The solution was stirred until the powder was mostly dissolved.
Any departures from the intended regimen were recorded in the eCRFs. All dose administrations were performed in the study center under the supervision of appropriately trained staff.
Subjects were provided with a light snack and were then fasted from all food and drink (except water) until the following morning, when they were provided with a high-fat breakfast. The breakfast was consumed over a maximum period of 25 min, and dosing occurred 30 min after the start of breakfast. Subjects were encouraged to eat their meal evenly over the 25 min period. For this trial the subject was deemed compliant if they consumed >80% of the high-fat standard breakfast.
The subjects in the 24-h baseline and in the fasted condition Period remained fasted up to 4 h post-dose and were offered a standardized meal to be taken between 4.00 and 5.00 h post-dose. Subjects in the fed condition were fasted overnight and received a high-fat standard breakfast 30 minutes pre-dose and then remained fasted for 4.00 to 5.00 h post-dose when they received a standardized meal.
Venous blood samples were withdrawn via an indwelling cannula or by venipuncture according to the time schedule presented in Table 5 Table, Table 6, and Table 7.
Blood samples of approximately 4 mL were collected into 4 mL BD Vacutainer Plastic K2EDTA Tubes with Lavender Hemogard Closure, and was gently inverted approximately 8 times. The tubes were then immediately stored on ice and processed within 60 min of collection by centrifugation at 1500 g for 10 min at 2 to 8° C. The resultant plasma was separated equally into 2 aliquots and transferred to 2 mL appropriately labelled primary and backup polypropylene cryovials.
Actual elapsed time from dosing was to be used for the final plasma PK parameter calculations after database lock.

[3] = system: Plasma protein; assay: Plasma protein binding in vitro; assay type: in vitro ADME; settings: co-administered in vitro
[4] = Plasma protein binding in vitro; assay type: in vitro ADME; settings: plasma, co-administered in vitro
[5] = clinical; assay type: in vivo, human; settings: human, in vivo; for concentration at 1 h / concentration at 4 h: both sexes
Experimental: • 1. […] Treatment is administered as one sachet daily for the initial 3 weeks and then increased if tolerated to one sachet twice daily. […] Sampling times are randomly assigned to occur at either 1 or 4 hours post-dose at the 12 week visit and the other time at the 24 week visit. • Treatment duration: 24 weeks • 2.
as §1
Subjects were advised to take the drug before a meal. […] Referred to as protocol 3500.
A study was carried out to examine plasma concentration data in various subgroups for the protocol AMX3500 Phase 2 study. This example summarizes plasma concentrations of TUDCA and 2 metabolites, also related acids, UDCA, the de-conjugated TUDCA metabolite, and GUDCA, the glycine conjugate of UDCA.
For each of the 2 treatment arms (treatment and placebo), subjects were further divided into 2 sample sequence groups for schedule of pharmacokinetic measurements: • 1. 1 hour post-dose for the Week 12 visit and 4 hours post-dose for the Week 24 visit • 2. 4 hours post-dose for the Week 12 visit and 1 hour post-dose for the Week 24 visit
Twenty-four distinct medication descriptions were identified as containing antibiotics. Dates of antibiotic use were compared to dates of visits and if the antibiotic use date range contained the visit date, then that visit was flagged for that subject's data for antibiotic use. […] These antibiotics could hypothetically be in a subject's body still if this event occurred. However, it was observed that only a small number of subjects took antibiotics near to visit dates but not overlapping visit dates. In other cases, subjects were taking antibiotics on the date of one visit but not the others. Some subjects are therefore in both categories of antibiotic use and nonuse, though no individual visits for a subject are counted in both categories at the same time.
Subjects whose race were recorded as “Black” or “African American” were evaluated according to the standard Glomerular Filtration Rate (eGFR) rating for that race. The other standard eGFR rating used, sometimes referred to as a standard for people who are White, was applied to subjects of all other races. These rates were analyzed as continuous in mL/min/1.73 m2 units and as the following categories: • 1. Less than 90 mL/min/1.73 m^2 • 2. Equal to or greater than 90 mL/min/1.73 m^2
Age was converted from a continuous variable to 2 categories: • 1. As old or older than 65 years old • 2. Younger than 65 years old
All boxplots boxes are bounded at the 25th and 75th percentile, with whiskers at 10th and 90th percentiles, outliers beyond that as points, the black line as median, and red line as mean.

[6] = Steady-state plasma concentration

With C[C@H](CCC(=O)NCCS(=O)(=O)O)[C@H]1CC[C@H]2[C@@H]3[C@@H](O)C[C@@H]4C[C@H](O)CC[C@]4(C)[C@H]3CC[C@]12C [TURSO, taurursodiol] the “metabolites detected in human hepatocytes versus rat and minipig hepatocytes” value [1] was “also detected in rat and minipig hepatocytes”, the AUC(0-inf) ([2]; both sexes, AUC(0-inf)) was 3910 ng·h/mL and the AUC(0-t) ([2]; both sexes, AUC(0-last)) was 4360 ng·h/mL. The Cmax ([2]; both sexes, Cmax) was 741 ng/mL, the half-life ([2]; both sexes, T1/2) was 4.34 h and the Tmax ([2]; both sexes, Tmax) was 4.5 h. The Tmax ([2]; both sexes, Tmax Median) was 4.5 h, the Vd/F ([2]; both sexes, Vz/F) was 1600 L and the half-life ([2]; both sexes, elimination half-lives (range)) was 2.51 to 8.71 h. The Cmax ([2]; both sexes, mean Cmax) was 871 ng/mL, the Cmax ([2]; both sexes, po, Cmax) was 741 ng/mL and the Tmax ([2]; both sexes, po, Tmax, Median) was 4.5 h. For the same molecule, the “AUG(0-last)” value ([2]; both) was 4360 (79.4) ng.h/ml, the Tmax ([2]; both) was 10.00 h and the “increase in exposure (AUC) with high-fat, high-calorie meal” value ([2]; both) was 46%. The “time of maximum plasma concentrations (range)” value ([2]; both) was 1.50 to 10.00 h, the “AUC(0-last), Adj Geo Mean” value ([2]; both, po) was 4460 ng·h/mL and the “Cmax, Adj Geo Mean” value ([2]; both, po) was 755 ng/mL. For the same molecule, the “median time to Cmax” value [2] was 4.5 h, the Plasma protein binding [3] was ~99% and the fraction unbound [4] was 0.02. For the same molecule, the concentration at 1 h ([5]; Plasma Concentration, Mean) was 503 ng/mL, the concentration at 4 h ([5]; Plasma Concentration, Mean) was 636 ng/mL and the concentration at 1 h ([5]; Plasma Concentration, Median) was 248 ng/mL. For the same molecule, the concentration at 4 h ([5]; Plasma Concentration, Median) was 446 ng/mL, the concentration at 1 h [5, 6] was 448 ng/mL and the concentration at 4 h [5, 6] was 566 ng/mL. The “Plasma Concentration, Median” value ([5]; both) was 20.0 ng/mL, the “Plasma Concentration, Min” value ([5]; both) was 20.0 ng/mL and the “steady state reached by” value ([5]; both) was ≤ 12 Week. For the same molecule, the “Plasma Concentration, Min” value ([5]; both, 1 h) was 20.0 ng/mL, the “Plasma Concentration, Min” value ([5]; both, 4 h) was 20.0 ng/mL and the “accumulation in plasma after once- or twice-daily dosing” value [5] was “little accumulation”. For the same molecule, the “effect of age on steady-state plasma concentration” value [5] was “no difference”, the “effect of mild renal insufficiency on steady-state plasma concentration” value [5] was “no discernible difference” and the “steady-state plasma concentrations versus endogenous levels” value [5] was “at least an order of magnitude higher than endogenous levels”.
